Assay results reported in PubChem BioAssay (NCI).
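48-hour exposure; five concentrations; linearly interpolated endpoints. GI50 marks 50% less growth. TGI is the concentration that stops growth completely.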

Tested on: MDA-MB-468 breast
Test: growth of human tumour cells (NCI), 48 h

SMILES: C#C[C@]1(O)CC[C@H]2[C@@H]3CC=C4c5sc(N6CCN(C)CC6)nc5CC[C@]4(C)[C@H]3CC[C@@]21C
- GI50: 2260 nM
- TGI: 7600 nM

SMILES: COc1ccc(-c2csc(NC(=O)c3cc(O)c(O)c(O)c3)n2)cc1
- GI50: 6940 nM
- TGI: 29500 nM

SMILES: CC(C)Nc1ncc2cc(Oc3ccc(F)cc3F)c(=O)n(C)c2n1
- GI50: > 23000 nM
- TGI: > 25000 nM

SMILES: COc1ccc2c(c1)/C(=C/c1cc(OC)c(OC)c(OC)c1)C(=O)N2C
- GI50: 14600 nM
- TGI: > 100000 nM

SMILES: C=C1C(=O)O[C@H]2[C@H]1CC/C(Cn1cc(-c3cc(C)c(C)cc3C)nn1)=C\CC[C@@]1(C)O[C@@H]21
- GI50: 530 nM
- TGI: 2060 nM

SMILES: COc1cc(OC)c(C(=O)/C=C/c2cccc(OC(C)=O)c2)cc1CC=C(C)C
- GI50: 1890 nM
- TGI: 9720 nM

SMILES: NC1CCC(N[C@@H]2C[C@H]2c2ccccc2)CC1 (some centres undefined)
- GI50: > 100000 nM
- TGI: > 100000 nM

SMILES: O=C(Nc1cccc(-n2cc(-c3ccncc3)c(-c3ccc(O)c(Cl)c3)n2)c1)Nc1cccc(C(F)(F)F)c1
- GI50: 1850 nM
- TGI: 6170 nM

SMILES: OCc1ccc(N(CCN2CCCC2)Cc2ccc(F)cc2)cc1Cl
- GI50: 1200 nM
- TGI: 3280 nM

SMILES: COc1ccc2c(c1)C1(C(=O)N2)C(C#N)=C(c2ccccc2)Nc2c1c(-c1ccccc1)nn2-c1ccccc1 (centres undefined)
- GI50: 2930 nM
- TGI: 9050 nM

SMILES: Nc1ncnc2c1cnn2Cc1ccc(Cl)cc1
- GI50: 44700 nM
- TGI: > 100000 nM

SMILES: NC1=Nc2cc(OCCCN3Cc4ccccc4C3)c(OCC3CC3)cc2C12CCCC2
- GI50: 1040 nM
- TGI: 2480 nM

SMILES: CCSc1nnc(-c2ccc3ccccc3c2O)n1-c1ccc(Cl)cc1
- GI50: 3590 nM
- TGI: > 100000 nM

SMILES: NC(=O)c1ccc2nc3c(n2c1)C(=O)C(=O)c1ccccc1-3
- GI50: 587 nM
- TGI: 1920 nM

SMILES: COc1ccccc1/C=C/C(=O)/C=C/c1ccccc1OC
- GI50: 1270 nM
- TGI: 2670 nM

SMILES: Cn1c(=O)c(Oc2ccccc2)cc2cnc(NC3CCOCC3)nc21
- GI50: > 25000 nM
- TGI: > 25000 nM

SMILES: Clc1ccc(Nc2ccnc(NCCCNc3ccnc4cc(Cl)ccc34)n2)cc1
- GI50: 1490 nM
- TGI: 3050 nM

SMILES: CCCN(CCSSCCNc1nc(N(C)O)nc(N(C)O)n1)c1nc(N(C)O)nc(N(C)O)n1
- GI50: 2150 nM
- TGI: 8860 nM

SMILES: CCOC(=O)Nc1nc2c(C)cccc2s1
- GI50: 28700 nM
- TGI: > 100000 nM

SMILES: Oc1ccc(C#CCOc2ccccc2)cc1CNCCN(Cc1ccccn1)Cc1ccccn1
- GI50: 1730 nM
- TGI: 4170 nM

SMILES: Cc1cc2cn3c4cccnc4[nH]c(=O)c3c2cc1C
- GI50: 1390 nM
- TGI: 2830 nM

SMILES: Cc1ccc(Sc2sc(-c3ccccc3)nc2[P+](c2ccccc2)(c2ccccc2)c2ccccc2)cc1
- GI50: 222 nM
- TGI: 674 nM

SMILES: Cc1cn(-c2cc(NC(=O)c3cncc(C#Cc4cnc5ccc(O[C@@H]6CCOC6)nn45)c3)cc(C(F)(F)F)c2)cn1
- GI50: 99.8 nM
- TGI: 432 nM

SMILES: CN1CCN(c2ccc(C(=O)Nc3cc(-c4cccc(NS(=O)(=O)c5ccccc5)c4)[nH]n3)cc2)CC1
- GI50: 4840 nM
- TGI: 14000 nM

SMILES: C=C1C(=O)O[C@H]2[C@H]1CC/C(COC(=O)c1ccccc1)=C\CC[C@@]1(C)O[C@@H]21
- GI50: 464 nM
- TGI: 2590 nM

SMILES: CCNCCCn1c2c(c3ccc([N+](=O)[O-])cc3c1=O)C(=O)c1cc(OC)cnc1-2
- GI50: 41.6 nM
- TGI: 210 nM

SMILES: O=C(COc1cccc(/C=C2\CSc3ccccc3C2=O)c1)c1ccc(Cl)cc1
- GI50: 1500 nM
- TGI: 3450 nM

SMILES: C[C@H](N)C(=O)N1C[C@H](CCCB(O)O)[C@](N)(C(=O)O)C1
- GI50: > 100000 nM
- TGI: > 100000 nM

SMILES: N#C/C(=C\c1ccc(Br)cc1)n1nnc2ccccc21
- GI50: 566 nM
- TGI: 2220 nM

SMILES: Cc1[nH]nc2c1N=C(c1ccccc1Cl)c1cc([N+](=O)[O-])ccc1N2
- GI50: 242 nM
- TGI: > 16800 nM

SMILES: C=C1C[C@@]2(C)C(CC[C@]3(C)C2CC=C2C4CC(C)(C)C[C@@H](OC(=O)/C(C)=C\C)[C@]4(C(=O)O)CC[C@]23C)C(C)(C)C1=O (some centres undefined)
- GI50: 2020 nM
- TGI: 5910 nM

SMILES: O=C(Nc1ccccc1)Nc1cccc(Oc2nnc(Cl)c3ccccc23)c1
- GI50: 1680 nM
- TGI: 7580 nM
